Laboratory results: US20020002294A1, “Estrogenic compounds as antiangiogenic agents” (priority 1997, published 2002)

Columns and labels:
[1] = test system: corneal neovascularization; experiment: Mouse Corneal Micropocket Assay; assay type: in vivo, mice; conditions: 150 mg/kg, daily oral, 5 days
Method: Five- to 7-week-old SCID female mice were obtained from Massachusetts General Hospital (Boston, Mass.), Immunocompetent 7-9-week-old female C57BL/6 mice were obtained from ARCH Technical Services, Children's Hospital (Boston, Mass.). All animal studies were conducted according to protocols approved by the Animal Ethics Committee of Children's Hospital. Animals were anesthetized in a methoxyflurane (Pittman-Moore, Mundelein, Ill.) chamber prior to all procedures and were observed until fully recovered. Animals were sacrificed by a lethal dose of methoxyflurane.
Mouse Corneal Micropocket Assay To study the effect of microtubule inhibitors on angiogenesis in vivo, a model of angiogenesis in the mouse cornea was used in […] mice as described previously (Kenyon, B. B., Voest, E. E., Chen, C. C., Folkman, J., and D'Amato, R. J. A model of angiogenesis in the mouse cornea. Invest. Ophthalmol. & Visual Sci., 76: 1625-1632, 1996). In brief, after animals were anesthetized, corneal micropockets were created in both eyes with a modified von Graefe cataract knife. Into each pocket, a 0.4 mm ×0.4 mm×0.2 mm sucrose aluminum sulfate (Bukh Meditee, Copenhagen, Denmark) pellet coated with hydron polymer type NCC (IHN Sciences, New Brunswick, N.J.) containing 80 ng of bFGF or 160 ng of human recombinant […] (gift from Reprogenesis, Cambridge, Mass.) was implanted 1.0-1.2 mm from the limbal vessels (bFGF experiments) or 0.5-0.7 mm from the limbus (VEGF experiments). Erythromycin ointment (E. Fougera, Melville, N.Y.) was applied to each operated eye. The sucralfate acts to stabilize the growth factor and to slow its release from the hydron. Before testing each drug in this assay, we found the maximal dose that could be administered daily for 5 consecutive days without producing signs of toxicity (i.e., no hair loss, diarrhea, infection, lethargy, or weight loss). The treated groups received daily oral administration for 5 consecutive days of the stated dosage of 2-ME or a derivative thereof suspended in 0.5 g/100 ml of carboxymethylcellulose.
Treatment was started on the day of pellet implantation. […] For this purpose, the eyes of the mice were examined by slit-lamp biomicroscopy. Area of corneal neovascularization was calculated using a modified formula for a half-ellipse: Area (mm^2)=[π×clock hours×length (mm)×0.2 mm]. This formula provides the most accurate approximation of the area of neovascularization that grows toward the pellet. (Kenyon, B. B., Voest, E. E., Chen, C. C., Folkman, J., and D'Amato, R. J. A model of angiogenesis in the mouse cornea. Invest. Ophthalmol. & Visual Sci., 76: 1625-1632, 1996).

[2] = test system: MDA-MB-435 estrogen receptor-negative human breast carcinoma cells; experiment: In Vivo Tumor Growth Inhibition; design: species or system SCID mice; conditions: 29 days at 75 mg/kg p.o.
Method: To determine the antitumor activity of 2-ME and derivatives, SCID mice were s.c. inoculated with 10^6 MDA-MB-435 estrogen receptor-negative human breast carcinoma cells. Treatment was initiated on day 12 when tumor volumes reached 75-100 mm3 in volume. Drugs were suspended in 0.5 g/100 ml of carboxymethylcellulose with sterile glass beads, vortexed for 5 minutes, and administered p.o. in a volume of 0.1 ml. Control mice received 0.1 ml of carboxymethylcellulose p.o. Serial caliper measurements of perpendicular diameters were used to calculate tumor volume using the following: (shortest diameter)^2×(longest diameter)×0.52. T/C was calculated as the volume of treated tumors over the volume of control tumors. A smaller number indicates a greater inhibition of tumor growth.

For `COc1cc2c(cc1O)CCC1C2CCC2(C)C(O)CCC12` (centres unmarked) [NSC 659853, 2-Methoxyestradiol], the “inhibition in corneal pocket assay” value [1] was 25% and the “T/C (volume of treated tumors over volume of control tumors)” value [2] was 0.40.
